BindingDB's records for doi:10.1111/cbdd.12372 (Beijing University of Technology, 2015)

Molecular target: T1, Casein kinase II subunit alpha [1-337] (Homo sapiens, UniProt P68400)
T1 construct: 1-337
Assay: Molecular Docking
From the text: The atomic co-ordinates of CK2α were retrieved from the Protein Data Bank [PDB ID: 3PE1] by deleting the heteroatoms except for water molecules within 6.5 of the ligand. Compounds 12, 23, 10, and 27 were constructed with the SYBYL 8.1 programa using compound CX-4945 as the template and were energy minimized with the Tripos force field. Four compounds were docked into the active site of CK2α using the molecular docking program Genetic Optimization for Ligand Docking (GOLD) version 3.0. The active site of CK2α was defined as a 6.5- -radius sphere centered on CX-4945, which comprise all complete amino acids there in. The crystal structure of CK2a in complex with compound CX-4945 was used to optimize docking parameters and evaluate the reliability of the docking methods. The standard default genetic algorithm (GA) parameters were used for all calculations and applied to predi

T1 sequence (P68400 1-337): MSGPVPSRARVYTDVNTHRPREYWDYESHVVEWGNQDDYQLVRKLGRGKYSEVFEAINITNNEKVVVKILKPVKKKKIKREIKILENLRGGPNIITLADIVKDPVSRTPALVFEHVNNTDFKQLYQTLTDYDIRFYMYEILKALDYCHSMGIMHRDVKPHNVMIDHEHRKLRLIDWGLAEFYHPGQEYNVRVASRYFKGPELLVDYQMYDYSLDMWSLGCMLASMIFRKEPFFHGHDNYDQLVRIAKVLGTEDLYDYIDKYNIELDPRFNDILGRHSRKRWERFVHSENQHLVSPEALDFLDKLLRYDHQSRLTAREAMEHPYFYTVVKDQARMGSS

N#Cc1ccc2c(c1)nc(-c1ccc(Cl)cc1)c1ccncc12 [5-(4-chlorophenyl)benzo[c]2,6-naphthyridine-8-carbonitrile (Compound 10)]
IC50: > 2500 nM
